Reference: patent US6369106B1 (Yissum Research Development Company of the Hebrew …, priority 1996, dated 2002)

Legend:
[1] = tested on: Neuroblastoma SHSY5Y (NB) cells; assay: Protection from oxidative stress in vitro, neutral red survival assay; assay type: cell-based; conditions: compound at 0.1 mM, 6-OHDA 0.1-0.25 mM, MPP+ 0.5-2 mM, 24 hours
Procedure: Protection from oxidative stress in vitro: Neuroblastoma SHSY5Y (NB) cells were maintained in Dulbeco's Modified Eagle's Medium (DMEM), supplemented with 8% FCS and 8% horse serum, penicillin (25 μg/ml), streptomycin (25 μg/ml), 2 mM L-glutamine and 400 μg/ml G418 (Gibco/BRL). For protection experiments cells were subcultured (in 2% serum) to poly-L-lysine-coated 96-well microtiter plates (Nunc), 100 μl of 5×10^5 cells/ml, CEA was applied to the cells in each well and 4 hours later DA, L-dopa (levodopa), 6-OHDA and MPP+ were added for 24 hours.
Survival was assayed by adding neutral red (0.34%, Sigma) to cells in DCCM-1 medium (0.1 ml/well, Bet-Haemek) and incubation for 2 hour at 37° C. The cells were then washed with cold PBS containing 10 mM MgCl2 and the dye was dissolved in 50% ethanol in 50% Somerson buffer (70 mM sodium citrate, 30 mM citric acid, 0.1 N HCl). ELISA reader (590 nm) was used to measure the remaining color intensity.

[2] = Crossing the blood-brain-barrier: compound level in brain extracts by HPLC after IP injection; assay type: in vivo, C57BL/6J mice; conditions: mice, IP 0.25-4 mg, 15 min after injection
Procedure: Detection of compound j (referred to in this Example also as CEA) was established using high performance liquid chromatography (HPLC). To this end, CEA was treated with a fluorescent thiolyte reagent (monobromobimane reagent) and analyzed on an HPLC column.
Crossing the blood-brain-barrier: In vivo experiments were carried out on C57BL/6J mice (15 grams) injected IP with compound J. After incubation (15 min, 60 min or 4 hours) the mice were anesthetized with ether and blood samples were drawn. Then mice underwent perfusion with 50 ml of saline, injected into the right ventricle. The levels of compound I in the brain and in the plasma were detected by selective fluorescent labeling using high performance liquid chromatography (HPLC).
Increasing amounts of compound J were injected IP and 15 min later, mice were perfused with saline and compound J levels in the brain extracts were determined by HPLC chromatography (FIG. 5b), as compared to a control, pure, uninjected compound J (FIG. 5a).

GSH levels = assay: Brain GSH levels after IP injection (HPLC); assay type: in vivo, C57BL/6J mice

Compound level in the brain [2]: concentration-dependent increase
SMILES: CC(=O)NC(CS)C(N)=O (stereo not shown) [compound J]
Protection of NB cells against toxicity (>50%) of DA, L-dopa, 6-OHDA and MPP+ [1]: protect the cells
Protection of NB cells against toxicity (>50%) of DA, L-dopa, 6-OHDA and MPP+ ([1]; listed as Compound J): protect NB cells
Endogenous GSH levels in mice brain, effect in words (GSH levels): increases endogenous GSH levels
